Legend:
Type in all cases: in vivo
Coptotermes formosanus = experiment: Test Example 8: filter paper bait test, control rate of Coptotermes formosanus; details: filter paper bait treated with 1 mL of 10 mg/mL acetone solution; 20 ergates; 6 weeks in a dark place
Description: A filter paper having a diameter of 33 mm (No. 1026 manufactured by Toyo Filter Paper, Co., Ltd.) was treated with acetone solution (1 mL) of 10 mg/mL of the present compounds (1) or (12) using a pipette, and dried at room temperature. Hereinafter, the resulting filter paper is referred to as a filter paper bait. 4% agarose was poured into a plastic petri dish having a diameter of 9 cm to make the thickness about 5 mm, and solidified by leaving at rest at room temperature. One circular hole having a diameter of 35 mm (hereinafter, referred to as a well) was made in the solidified agarose. One filter paper bait was put into the well. Then, after 20 ergates of Coptotermes formosanus were released in the above petri dish, the petri dish was capped, and sealed with a parafilm. After storing in a dark place for 6 weeks, the petri dish was opened. The control rate was calculated by observing the life and death of the Coptotermes formosanus in the petri dish.

Plutella xylostella [1] = experiment: Test Example 2: cabbage root immersion (systemic), dead pest rate of Plutella xylostella larvae; details: Plutella xylostella, 120 h; test concentration 25 ppm; root immersion 5 days; 10 second-instar larvae; after 5 days at 24° C.
Description: In 0.25 mL of a mixture solution of Sorgen TW-20 (manufactured by Daiichi Industries Pharmaceuticals, Co., Ltd.) and acetone (mixture volume ratio; Sorgen TW-20:acetone=1:19), 2.5 mg of the present compound (1), (2), (3), (4), (7), (10), (11), (12), (16), (18), (19), (20), (21), (22), (25), (30), (36), (37), (41), (42), (52), (54), (56), (57), (60), (62), (105) or (109) was dissolved. The solution was diluted with ion-exchanged water so that the active ingredient concentration became to a predetermined concentration to prepare a pesticidal solution for test of the test compound. The root part of cabbages in the fourth leaf period were washed with tap water to remove soils, and then immersed in the pesticidal solution for test. After 5 days from immersion of the root part, the root part was removed, and the leaves and stems were put in a cup (volume; 180 mL). In the cup 10 second-instar larvae of Plutella xylostella were released, and the cup was stored at 24° C. After 5 days, the number of dead pests was counted, and the dead pest rate was calculated by the following equation:
(§1) Dead pest rate(%)=(the number of dead pests/the number of tested pests)×100
The test concentrations of the other present compounds were 25 ppm.

Plutella xylostella [2] = experiment: Test Example 7: cabbage root immersion, Plutella xylostella, against comparative compound D; details: 25 ppm; root immersion 5 days; 10 second-instar larvae; after 5 days at 24° C.
Description: (§2) In 0.25 mL of a mixed solution of Tween-20 and acetone (mixture volume ratio: Tween-20:acetone=1:19), 2.5 mg of the present compound (94) or comparative compound D was dissolved. The solution was diluted with ion-exchanged water so that the active ingredient concentration became to the predetermined concentration (25 ppm) to prepare a pesticidal solution for test of the test compound. The root part of cabbages in the fourth leaf period was washed with tap water to remove soils, and then immersed in the pesticidal solution for test. After 5 days from immersion of the root part, the root part was removed, and the leaves and stems were put in a ice cream cup (volume; 180 mL). In the cup 10 second-instar larvae of Plutella xylostella were released, and the cup was stored at 24° C. After 5 days, the number of dead pests was countered, and the dead pest rate was calculated by the following equation:
as §1

Spondoptela litura = experiment: Test Example 3: treated artificial diet (Insecta LF), dead pest rate of Spondoptela litura larvae; details: 144 h, 2 mL on Insecta LF diet, 5 fourth-instar larvae, after 6 days
Text: Ten parts of the present compound (1) to (5), (7) to (13), (18) to (33), (35) to (49), (52) to (56), (58) to (61), (71), (73) to (77), (79), (80), (82), (83), (93), (94), (95), (96), (97), (100) to (109), (111), (112), (115), (117), (119), (121), or (123) to (133), 35 parts of white carbon containing 50 parts of polyoxyethylene alkyl ether sulfate ammonium salt, and 55 parts of water were mixed, and finely ground by a wet grinding method to obtain a preparation. The obtained preparation was diluted with water so that the active ingredient concentration became to 500 ppm to prepare a pesticidal solution for test. On the bottom of a polyethylene cup having a diameter of 5.5 cm, a filter paper having a diameter of 5.5 cm was placed, on which Insecta LF (Nippon Agriculture Industries, Co., Ltd.) sliced in a thickness of 6 mm and further cut half was laid, and to which 2 mL of the above-described pesticidal solution for test was added. After air-dried, 5 fourth-instar larvae of Spondoptela litura were released in the cup, and the cup was capped. After 6 days, the number of dead pests was counted, and the dead pest rate was calculated by the following equation:
as §1

Plutella xylostella [3] = experiment: Test Example 1: spray on cabbage, dead pest rate of Plutella xylostella larvae; details: Plutella xylostella, 120 h; 500 ppm spray solution, 20 ml/cup on cabbage; 5 second-instar larvae; after 5 days
Description: Ten parts of the present compound (1), (2), (5) to (19), (21) to (34), (36) to (61), (63), (64), (68) to (71), (74), (76) to (78), (82) to (83), (89), (93), (94), (97), (99), (102) to (110), (111), (115), (116) (117) to (120) or (123) to (134); 35 parts of white carbon containing 50 parts of polyoxyethylene alkyl ether sulfate ammonium salt; and 55 parts of water were mixed, and finely ground by a wet grinding method to obtain a 10% flowable agent. The obtained flowable agent was diluted with water so that the active ingredient concentration became to 500 ppm to prepare a spray solution for test.
Cabbages were planted in polyethylene cups, and grown until the third true leaf or the fourth true leaf was developed. The spray solution for test prepared above was sprayed at a rate of 20 ml/cup on the cabbages.
After the pesticidal solution sprayed onto the cabbages was dried, 5 second-instar larvae of Plutella xylostella were put on the cabbages. After 5 days, the number of dead Plutella xylostella was examined, and a dead pest rate was calculated by the following equation:
as §1

Plutella xylostella [4] = experiment: Test Example 5: cabbage root immersion, Plutella xylostella, against comparative compounds A and B; details: 25 ppm; root immersion 5 days; 10 second-instar larvae; after 5 days at 24° C.
Description: as §2, with “(1), (4), (10), (82),” for “(94) or”, “A or B” for “D”, “a” for “a ice cream”
as §1

Compound | control rate (Coptotermes formosanus) [%] | pest or weed control at 25 ppm (Plutella xylostella [1]) [%] | further results
CN(C(=O)c1c(F)cccc1F)C(=O)N(C)c1ccc(SC(F)(F)F)cc1F [(10)] | 65 | 100 | –
CN(C(=O)c1c(F)cccc1F)C(=O)N(C)c1ccc(SC(F)(F)C(F)F)cc1F [(12)] | 60 | 100 | –
CN(C(=O)NC(=O)c1c(F)cccc1F)c1ccc(SC(F)(F)C(F)F)cc1 [(94)] | – | – | dead pest rate (Plutella xylostella [2]): 100%; pest or weed control at 500 ppm (Spondoptela litura): 100%; pest or weed control at 500 ppm (Plutella xylostella [3]): 100%
O=C(NC(=O)c1c(F)cccc1F)Nc1ccc(SC(F)(F)F)cc1F [comparative compound A] | – | – | dead pest rate (Plutella xylostella [4]): 5%
